Numbered stars: 1 amine (or outer) side, 2 acyl side, 3 side chain; on linkers, the order of the positions; unused ones are H or OH. Ends that are not written are not given here. Peptide text beside a SMILES is read from it. * marks the point of attachment. X1 = O=c1nc(N*)ccn1[C@@H]1O[C@H](CO)[C@@H](O)C1(F)F; Suc = O=C(CCC(=O)[*:2])[*:1]
Columns and labels:
Caco-2 monolayer [1] = test: Transport across Caco-2 monolayer (permeability assay); conditions: HPLC-UV; for sum of the CPP absorbed from the apical side and found in the basolateral chamber at the end of the experiment: 60 μM apical in HBSS pH 7.4, 37 °C, remainder retained in cells or degraded; for percentage of amount applied apically recovered in the basolateral compartment at 120 min / sum of the CPP absorbed from the apical side and found in the basolateral chamber at the end of the experiment: 120 min
Method: (§1) A monolayer of Caco-2 cells was established in a 12-well plate [11]. […] Firstly, filters were pre-wet with 0.1 mL of culture medium for 2 minutes. Cells were seeded in the apical side (0.5 mL of cells per well, cell density of 4.0 x 10^5 cells/mL). The basolateral compartment was filled with 1.5 mL of culture medium and plates were incubated for 6 h (5 % CO2 humidified atmosphere at 37 °C). Then, to remove non-adherent cells and reduce the risk of multilayer formation, the medium in the apical side was removed and replaced with fresh medium. Cells were maintained for 29 days, replacing the culture medium from both compartments every other day.
(§2) All the solutions used were pre-warmed to 37 °C. Culture medium was replaced with fresh medium 24 h prior the beginning of the experiment. Next, this culture medium was removed first from the basolateral and then from the apical compartment. The apical compartment was carefully washed and then filled with 0.5 mL of Hank’s Balanced Salt Solution (HBSS, pH 7.4) and the basolateral compartment was also filled with 1.5 mL of HBSS. […] All tested compounds were prepared in HBBS (60 μM) and added to the apical compartment. Throughout this assay, the final volume was 0.4 mL in the apical compartment and 1.2 mL in the basolateral chamber. At t = 0 min, 0.45 mL of the donor solution was added to the apical compartment and a sample (0.05 mL) was immediately taken. The plate was incubated (lid-covered) at 37 °C under gentle shaking (190 rpm). Every 30 min for the next 2 h, a sample of 0.6 mL was taken from the basolateral compartment and replaced with the same volume of HBSS.
(§3) The concentrations of the evaluated compound in the basolateral and apical compartments were determined by high-performance liquid chromatography (HPLC) (VWR International LCC, LaChrom Ultra, Pennsylvania, USA). Elution was performed with a variable gradient of acetonitrile (ACN) in water containing 0.05 % trifluoroacetic acid (TFA), at a 0.7 mL/min flow and detection at variable wavelength (243 nm for gemcitabine and 220 nm for peptides and conjugates).

Caco-2 cells = test: MTT cytotoxicity assay (cell growth inhibition); format: cell-based; conditions: Homo sapiens, 72 h incubation, 0.1-100000 μM, absorbance 570 nm, triplicate
Method: Human colon adenocarcinoma cell line Caco-2 (passage 25-47, kindly provided by the Department of Biomedicine of the Faculty of Medicine of University of Porto, and previously acquired via ATCC) was routinely maintained in Dulbecco’s Modified Eagle’s Medium (DMEM) supplemented with 10 % fetal bovine serum (FBS), L-glutamine and antibiotics penicillin and streptomycin. Cells were cultured at 37 °C in a 5 % CO2 humidified atmosphere. Culturing medium was replaced every 2-3 days and cell subculture was conducted once a week by trypsinization (0.25 % trypsin-EDTA wt/vol, 5, min, 37, °C).
The cell growth inhibitory activity of gemcitabine in Caco-2 cells was assessed with the MTT assay. Briefly, a growth curve was traced to determine the best cell density for the assay. […] Finally, MTT solution was removed, DMSO (100 μL per well) was added to solubilize the formazan crystals formed by viable cells and absorbance was measured at 570 nm in an automated microplate reader (Sinergy HT, Biotek Instruments Inc, Vermont, USA). […]
Gemcitabine cytotoxicity results were compared with the untreated control (mean of values was set to 100 %) and expressed as mean ± SEM. The statistical significance between different gemcitabine concentrations was analyzed in GraphPad Prism 7 (San Diego, EUA) using one-way ANOVA (p<0.05).

[2] = parameters: method as in PMID 16807468; conditions: administered intravenously; rapid deamination by cytidine deaminase in serum; cited from earlier work
From the text: Gemcitabine (Gem, dFdC or 2′,2′-difluoro-2′-deoxycytidine, Scheme 1) is a cytotoxic nucleoside analogue used as a chemotherapeutic drug.

Caco-2 monolayer [3] = system: Caco-2 monolayer
Method: as §1, §2, §3

[4] = Caco-2 monolayer (29 days, Transwell COL PTFE 0.4 μm), apical to basolateral, 60 μM in HBSS pH 7.4, 37 °C, 190 rpm

Row | Compound | percentage of amount applied apically recovered in the basolateral compartment at 120 min (Caco-2 monolayer [1]; [4]) | sum of the CPP absorbed from the apical side and found in the basolateral chamber at the end of the experiment (Caco-2 monolayer [1]; Caco-2 monolayer) | other results
1 | Nc1ccn([C@@H]2O[C@H](CO)[C@@H](O)C2(F)F)c(=O)n1 [Gemcitabine, 2′,2′-difluoro-2′-deoxycytidine] | 18% |  | percentage found in the basolateral side after 30 minutes (Caco-2 monolayer [1]; Caco-2 monolayer (29 days, Transwell COL PTFE 0.4 μm), apical to basolateral, 60 μM in HBSS pH 7.4, 37 °C, 190 rpm, 30 min): 3%; additional percentage of drug crossing the membrane from 90 min (plateau) until 120 min (Caco-2 monolayer [1]; Caco-2 monolayer, apical to basolateral, 60 μM in HBSS pH 7.4, 37 °C, between 90 and 120 min): 1%; IC50 (Caco-2 cells): 52.4 µM; half-life [2]: 8 to 17 min
2 | CSCC[C@H](NC(=O)[C@@H](NC(=O)[C@@H]1CCCN1C(=O)[C@H](CC(C)C)NC(=O)[C@H](CCCCN)NC(=O)CCC(=O)Nc1ccn([C@@H]2O[C@H](CO)[C@@H](O)C2(F)F)c(=O)n1)C(C)C)C(=O)N[C@@H](Cc1c[nH]c2ccccc12)C(N)=O [Gem-CPP6-2] ({X1-Suc}-KLPVMW-NH2) | Approximately 31% |  | extent of permeation relative to Gem-CPP6-1 and Gem-CPP6-3 conjugates (Caco-2 monolayer [3]): about 3 fold
3 | CSCC[C@H](NC(=O)[C@@H](NC(=O)[C@@H]1CCCN1C(=O)[C@H](CC(C)C)NC(=O)[C@H](CCCCN)NC(=O)[C@H](Cc1c[nH]c2ccccc12)NC(=O)CCC(=O)Nc1ccn([C@@H]2O[C@H](CO)[C@@H](O)C2(F)F)c(=O)n1)C(C)C)C(N)=O [Gem-CPP6-1] ({X1-Suc}-WKLPVM-NH2) | 9% |  | 
4 | WVPTLK [CPP6-3] | 37% | 75% | 
5 | KLPVMW-NH2 [CPP6-2] | 40% | 84% | 
6 | WKLPVM-NH2 [CPP6-1] | 33% | 50% | 
